Measured values taken from paper PMC2267855, “Site-directed mutagenesis of Arginine282 suggests how protons and peptides are co-transported by rabbit PepT1” (The International Journal of Biochemistry & Cell Biology, 2008).
Positions count from the first letter of the chain named.

Columns and labels:
Format in all cases: cell-based, rabbit
[1] = target: T1, R282E-PepT1 (Oryctolagus cuniculus, UniProt P36836, R282E); assay: Apparent charge:peptide stoichiometry (two-electrode voltage clamp current / radiolabelled uptake), R282E-PepT1; details: R282E-PepT1, pHout 5.5, resting membrane potential
T1 construct: expressed in transfected cells; host or cells: Xenopus laevis oocytes injected with cRNA
T1 sequence (P36836 1-707 R282E): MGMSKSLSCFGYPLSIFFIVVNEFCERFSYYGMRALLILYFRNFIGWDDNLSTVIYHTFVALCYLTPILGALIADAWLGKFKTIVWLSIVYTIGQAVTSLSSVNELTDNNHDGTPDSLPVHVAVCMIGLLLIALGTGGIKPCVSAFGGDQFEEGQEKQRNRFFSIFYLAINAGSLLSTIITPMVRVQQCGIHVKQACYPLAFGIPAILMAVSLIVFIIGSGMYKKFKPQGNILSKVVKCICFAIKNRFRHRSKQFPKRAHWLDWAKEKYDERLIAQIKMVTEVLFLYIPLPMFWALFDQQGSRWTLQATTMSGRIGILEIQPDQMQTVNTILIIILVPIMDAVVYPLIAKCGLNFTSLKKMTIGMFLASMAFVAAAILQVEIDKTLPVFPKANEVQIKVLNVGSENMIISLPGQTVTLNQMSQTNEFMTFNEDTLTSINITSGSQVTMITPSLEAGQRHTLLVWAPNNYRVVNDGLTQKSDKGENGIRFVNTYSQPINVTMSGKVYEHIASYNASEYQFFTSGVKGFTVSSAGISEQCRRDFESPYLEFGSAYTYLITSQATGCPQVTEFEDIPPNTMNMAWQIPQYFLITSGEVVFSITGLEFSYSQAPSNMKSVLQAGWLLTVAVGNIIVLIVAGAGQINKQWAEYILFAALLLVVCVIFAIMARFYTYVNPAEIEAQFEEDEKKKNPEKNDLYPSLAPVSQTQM
Description: (§1) Measurements of membrane potential were made by impaling oocytes with a single glass microelectrode (Intra 767 amplifier, WPI, Stevenage, Hertfordshire, UK) perfused in uptake medium (as above) with or without 0.4 μM D-Phe-L-Gln (synthesised in house), 0.6 mM Gly-L-Gln (Sigma, Poole, UK) or 10 mM 4-aminobenzoic acid (4-AMBA, Sigma). Two-electrode voltage clamp (TEVC) was performed by placing oocytes in a 0.1 ml recording chamber and perfusing with uptake solution (pH 5.5 or 7.4) at a rate of 15 ml/min. Oocytes were impaled by two agarose-cushioned microelectrodes filled with 3 M KCl (0.5–2.0 MΩ) and voltage-clamped at −60 mV using a Geneclamp 500B amplifier and PCLAMP 8.1 software (Axon Instruments, CA, USA). The holding potential was stepped from −60 mV over the range of −150 to +50 mV in 10 mV steps, each pulse lasting 100 ms, and returning to −60 mV in between test voltage pulses. Typically traces were filtered at 1 kHz during recording and digitized at 0.5–5 kHz using the DigiData 1200 interface (Axon Instruments, CA, USA). All experiments were carried out at room temperature.
(§2) In order to calculate the apparent charge:substrate stoichiometry, the peptide induced current that was measured by two-electrode voltage clamp at the oocyte resting membrane potential was divided by the radiolabelled dipeptide uptake in oocytes from the same preparation. […]

[2] = target: T2, R282A-PepT1 (Oryctolagus cuniculus, UniProt P36836, R282A); assay: Apparent charge:peptide stoichiometry (two-electrode voltage clamp current / radiolabelled uptake), R282A-PepT1; details: R282A-PepT1, pHout 5.5, resting membrane potential
T2 construct: expressed in transfected cells; host or cells: Xenopus laevis oocytes injected with cRNA
T2 sequence (P36836 1-707 R282A): T1 sequence (P36836 1-707 R282E) with E282A
Description: as §1, §2

[3] = target: T3, R282D-PepT1 (Oryctolagus cuniculus, UniProt P36836, R282D); assay: Apparent charge:peptide stoichiometry (two-electrode voltage clamp current / radiolabelled uptake), R282D-PepT1; details: R282D-PepT1, pHout 5.5, resting membrane potential
T3 construct: expressed in transfected cells; host or cells: Xenopus laevis oocytes injected with cRNA
T3 sequence (P36836 1-707 R282D): T1 sequence (P36836 1-707 R282E) with E282D
Description: as §1, §2

apparent stoichiometry (charge:peptide), normalised to wild-type 1:1 [1]: 4
apparent stoichiometry (charge:peptide), normalised to wild-type 1:1 [2]: 5
apparent stoichiometry (charge:peptide), normalised to wild-type 1:1 [3]: 5
SMILES: NC(=O)CC[C@H](NC(=O)[C@H](N)Cc1ccccc1)C(=O)O [D-Phe-L-Gln]
